From patent publication US6544521B2, “Immunoreactive peptide CTL epitopes of human cytomegalovirus pp150” (City of Hope, priority 2000, dated 2003)

Tested on: pp150-specific T cell clones
Test: Chromium release assay with peptide-sensitized EBVLCL and pp150-specific CTL clones (epitope mapping)
Type: cell-based, human
Conditions: persons having the indicated HLA allele; target cells sensitized with peptide at 50 μM

| Sequence | Number of Individuals Tested |
| --- | --- |
| QTVTSTPVQGR (listed as Human cytomegalovirus) [SEQ ID NO: 2] | 2/2 |
| TTVYPPSSTAK (listed as Human cytomegalovirus) [SEQ ID NO: 1] | 2/2 |
